In brackets after ≈: the same amount, converted by molar mass.
What was measured:
[1] = Selectivity index, ratio of GI50 for human THP1 cells to MIC90 for active stage of Mycobacterium bovis BCG ATCC 35743; format: toxicity, cell-based, THP-1; settings: read-out: Selectivity Index
[2] = Selectivity index, ratio of GI50 for human THP1 cells to MIC90 for active stage of Mycobacterium tuberculosis H37Ra; format: toxicity, cell-based, THP-1; settings: read-out: Selectivity Index
[3] = Selectivity index, ratio of GI50 for human HCT116 cells to MIC90 for active stage of Mycobacterium bovis BCG ATCC 35743; format: toxicity, cell-based, HCT-116; settings: read-out: Selectivity Index
[4] = Selectivity index, ratio of GI50 for human HCT116 cells to MIC90 for active stage of Mycobacterium tuberculosis H37Ra; format: toxicity, cell-based, HCT-116; settings: read-out: Selectivity Index
[5] = Selectivity index, ratio of GI50 for human A549 cells to MIC90 for active stage of Mycobacterium bovis BCG ATCC 35743; format: toxicity, cell-based; settings: read-out: Selectivity Index
[6] = Selectivity index, ratio of GI50 for human A549 cells to MIC90 for active stage of Mycobacterium tuberculosis H37Ra; format: toxicity, cell-based; settings: read-out: Selectivity Index
[7] = Selectivity index, ratio of GI50 for human MCF7 cells to MIC90 for active stage of Mycobacterium bovis BCG ATCC 35743; format: toxicity, cell-based; settings: read-out: Selectivity Index
[8] = Selectivity index, ratio of GI50 for human MCF7 cells to MIC90 for active stage of Mycobacterium tuberculosis H37Ra; format: toxicity, cell-based; settings: read-out: Selectivity Index
[9] = Cytotoxicity against human THP1 cells incubated for 1 to 11 days by MTT assay; format: cell-based, THP-1
[10] = Cytotoxicity against human HCT116 cells incubated for 1 to 11 days by MTT assay; format: cell-based, HCT-116
[11] = test system: Mycobacterium tuberculosis; assay: Antitubercular activity against active stage of Mycobacterium tuberculosis H37Ra assessed as cell viability after 8 days by XTT reduction menadione assay; format: functional; settings: 192 h
[12] = test system: Mycobacterium tuberculosis; assay: Antitubercular activity against dormant stage of Mycobacterium tuberculosis H37Ra assessed as cell viability after 12 days by XTT reduction menadione assay; format: functional; settings: 288 h
[13] = Antibacterial activity against active stage of Mycobacterium bovis BCG ATCC 35743 assessed as cell viability after 8 days by nitrate reductase assay; format: functional, Mycobacterium bovis BCG str. ATCC 35743; settings: Mycobacterium tuberculosis variant bovis BCG, ATCC 35743, 192 h
[14] = Antibacterial activity against dormant stage of Mycobacterium bovis BCG ATCC 35743 assessed as cell viability after 12 days by nitrate reductase assay; format: functional, Mycobacterium bovis BCG str. ATCC 35743; settings: Mycobacterium tuberculosis variant bovis BCG, ATCC 35743, 288 h
[15] = Cytotoxicity against human MCF7 cells incubated for 1 to 11 days by MTT assay; format: cell-based
[16] = (§1) Cytotoxicity against human A549 cells incubated for 1 to 11 days by MTT assay; format: cell-based; settings: A549 cells
A549 = assay: as §1; format: cell-based; settings: a549

CCCCCn1cnc2sc(CC)cc2c1=O
selectivity ratio [1]: 10
selectivity ratio [2]: 2
selectivity ratio [3]: 10
selectivity ratio [4]: 2
selectivity ratio [5]: > 10
selectivity ratio [6]: 2
selectivity ratio [7]: > 10
selectivity ratio [8]: 2
GI50 [9]: > 100 mg/L
GI50 [10]: > 100 mg/L
MIC90 [11]: 44.1 mg/L
MIC90 [12]: 43.8 mg/L (≈ 175 µM)
MIC90 [13]: 10.1 mg/L (≈ 40.3 µM)
MIC90 [14]: 20.8 mg/L (≈ 82.9 µM)
GI50 [15]: > 100 mg/L
GI50 [16]: > 100 mg/L

CCCCCCCc1cc2c(=O)n(CC3CC3)cnc2s1
selectivity ratio [1]: 66
selectivity ratio [2]: 2
selectivity ratio [3]: 66
selectivity ratio [4]: 2
selectivity ratio [5]: > 66
selectivity ratio [6]: 2
selectivity ratio [7]: > 66
selectivity ratio [8]: 2
GI50 [9]: > 100 mg/L
GI50 [10]: > 100 mg/L
MIC90 [11]: 49.3 mg/L
MIC90 [12]: 49.1 mg/L (≈ 161 µM)
MIC90 [13]: 1.52 mg/L (≈ 4.99 µM)
MIC90 [14]: 2.01 mg/L (≈ 6.6 µM)
GI50 [15]: > 100 mg/L
GI50 [16]: > 100 mg/L

CCCCCCCc1cc2c(=O)n(CCN=[N+]=[N-])cnc2s1
selectivity ratio [1]: 77
selectivity ratio [2]: 48
selectivity ratio [3]: 77
selectivity ratio [4]: 48
selectivity ratio [5]: > 77
selectivity ratio [6]: 48
selectivity ratio [7]: > 77
selectivity ratio [8]: 48
GI50 [9]: > 100 mg/L
GI50 [10]: > 100 mg/L
MIC90 [11]: 6.5 µM
MIC90 [12]: 8.33 mg/L (≈ 26.1 µM)
MIC90 [13]: 1.3 mg/L (≈ 4.07 µM)
MIC90 [14]: 2.26 mg/L (≈ 7.08 µM)
GI50 [15]: > 100 mg/L
GI50 [16]: > 100 mg/L

CCCCCCCCCCc1cc2c(=O)n(CCO)cnc2s1
selectivity ratio [1]: 5
selectivity ratio [2]: 15
selectivity ratio [3]: 5
selectivity ratio [4]: 15
selectivity ratio [5]: > 5
selectivity ratio [6]: 15
selectivity ratio [7]: > 5
selectivity ratio [8]: 15
GI50 [9]: > 100 mg/L
GI50 [10]: > 100 mg/L
MIC90 [11]: 6.7 mg/L
MIC90 [12]: 15 mg/L (≈ 44.6 µM)
MIC90 [13]: 21.4 mg/L (≈ 63.7 µM)
MIC90 [14]: 23.4 mg/L (≈ 69.6 µM)
GI50 [15]: > 100 mg/L
GI50 [16]: > 100 mg/L

CCCCCCCc1cc2c(=O)n(CC#N)cnc2s1
selectivity ratio [1]: 53
selectivity ratio [2]: 40
selectivity ratio [3]: 53
selectivity ratio [4]: 40
selectivity ratio [5]: > 53
selectivity ratio [6]: 40
selectivity ratio [7]: > 53
selectivity ratio [8]: 40
GI50 [9]: > 100 mg/L
GI50 [10]: > 100 mg/L
MIC90 [11]: 8.68 µM
MIC90 [12]: 5.2 mg/L (≈ 18 µM)
MIC90 [13]: 1.89 mg/L (≈ 6.53 µM)
MIC90 [14]: 3.02 mg/L (≈ 10.4 µM)
GI50 [15]: > 100 mg/L
GI50 [16]: > 100 mg/L

CCCCCCCc1cc2c(=O)n(CCCBr)cnc2s1
selectivity ratio [1]: 16
selectivity ratio [2]: 6
selectivity ratio [3]: 16
selectivity ratio [4]: 6
selectivity ratio [5]: 5
selectivity ratio [6]: 2
selectivity ratio [7]: 3
selectivity ratio [8]: 1
GI50 [9]: > 100 mg/L
GI50 [10]: > 100 mg/L
MIC90 [11]: 17.5 mg/L
MIC90 [12]: 18.5 mg/L (≈ 49.8 µM)
MIC90 [13]: 6.3 mg/L (≈ 17 µM)
MIC90 [14]: 9.37 mg/L (≈ 25.2 µM)
GI50 [15]: 19.7 mg/L (≈ 53 µM)
GI50 [16]: 34.1 mg/L (≈ 92 µM)

CCCCCCc1cc2c(=O)n(CCN=[N+]=[N-])cnc2s1
selectivity ratio [1]: 25
selectivity ratio [2]: 12
selectivity ratio [3]: 4
selectivity ratio [4]: 2
selectivity ratio [5]: 4
selectivity ratio [6]: 2
selectivity ratio [7]: > 25
selectivity ratio [8]: 12
GI50 [9]: > 100 mg/L
GI50 [10]: 14.7 mg/L (≈ 48.1 µM)
MIC90 [11]: 8.42 mg/L
MIC90 [12]: 11.5 mg/L (≈ 37.8 µM)
MIC90 [13]: 4.08 mg/L (≈ 13.4 µM)
MIC90 [14]: 4.51 mg/L (≈ 14.8 µM)
GI50 [15]: > 100 mg/L
GI50 [16]: 16.2 mg/L (≈ 52.9 µM)
GI90 (A549): 74.66 mg/L (≈ 244 µM)

CCCCCc1cc2c(=O)n(CCC)cnc2s1
selectivity ratio [1]: 12
selectivity ratio [2]: 2
selectivity ratio [3]: 12
selectivity ratio [4]: 2
selectivity ratio [5]: 3
selectivity ratio [6]: 1
selectivity ratio [7]: 4
selectivity ratio [8]: 1
GI50 [9]: > 100 mg/L
GI50 [10]: > 100 mg/L
MIC90 [11]: 42.9 mg/L
MIC90 [12]: 36.3 mg/L (≈ 137 µM)
MIC90 [13]: 8.51 mg/L (≈ 32.2 µM)
MIC90 [14]: 9.82 mg/L (≈ 37.1 µM)
GI50 [15]: 33.8 mg/L (≈ 128 µM)
GI50 [16]: 27.4 mg/L (≈ 103 µM)

C=CCCCCCCCc1cc2c(=O)n(CCBr)cnc2s1
selectivity ratio [1]: 41
selectivity ratio [2]: 29
selectivity ratio [3]: 18
selectivity ratio [4]: 12
selectivity ratio [5]: 19
selectivity ratio [6]: 13
selectivity ratio [7]: 11
selectivity ratio [8]: 7
GI50 [9]: > 100 mg/L
GI50 [10]: 42.4 mg/L (≈ 111 µM)
MIC90 [11]: 3.5 mg/L
MIC90 [12]: 6.31 mg/L (≈ 16.5 µM)
MIC90 [13]: 2.42 mg/L (≈ 6.31 µM)
MIC90 [14]: 1.4 mg/L (≈ 3.65 µM)
GI50 [15]: 26.1 mg/L (≈ 68.1 µM)
GI50 [16]: 45.4 mg/L (≈ 119 µM)

CCCCCc1cc2c(=O)n(CC3CC3)cnc2s1
selectivity ratio [1]: 20
selectivity ratio [2]: 3
selectivity ratio [3]: 20
selectivity ratio [4]: 3
selectivity ratio [5]: > 20
selectivity ratio [6]: 3
selectivity ratio [7]: > 20
selectivity ratio [8]: 3
GI50 [9]: > 100 mg/L
GI50 [10]: > 100 mg/L
MIC90 [11]: 38.3 mg/L
MIC90 [12]: > 50 mg/L
MIC90 [13]: 4.95 mg/L (≈ 17.9 µM)
MIC90 [14]: 8.07 mg/L (≈ 29.2 µM)
GI50 [15]: > 100 mg/L
GI50 [16]: > 100 mg/L

CCCCCCCCCCc1cc2c(=O)n(CCBr)cnc2s1
selectivity ratio [1]: 44
selectivity ratio [2]: 4
selectivity ratio [3]: 44
selectivity ratio [4]: 4
selectivity ratio [5]: 15
selectivity ratio [6]: 1
selectivity ratio [7]: 9
selectivity ratio [8]: 1
GI50 [9]: > 100 mg/L
GI50 [10]: > 100 mg/L
MIC90 [11]: 24.6 mg/L
MIC90 [12]: 35.2 mg/L (≈ 88.2 µM)
MIC90 [13]: 2.29 mg/L (≈ 5.73 µM)
MIC90 [14]: 3.35 mg/L (≈ 8.39 µM)
GI50 [15]: 20.5 mg/L (≈ 51.4 µM)
GI50 [16]: 35.1 mg/L (≈ 87.8 µM)

CCCCCCc1cc2c(=O)n(CC3CC3)cnc2s1
selectivity ratio [1]: 73
selectivity ratio [2]: 2
selectivity ratio [3]: 13
selectivity ratio [5]: > 73
selectivity ratio [6]: 2
selectivity ratio [7]: 18
selectivity ratio [8]: 1
GI50 [9]: > 100 mg/L
GI50 [10]: 17.6 mg/L (≈ 60.7 µM)
MIC90 [11]: 45.9 mg/L
MIC90 [12]: 42.7 mg/L (≈ 147 µM)
MIC90 [13]: 1.37 mg/L (≈ 4.72 µM)
MIC90 [14]: 2.34 mg/L (≈ 8.06 µM)
GI50 [15]: 24.8 mg/L (≈ 85.5 µM)
GI50 [16]: > 100 mg/L

CC(=O)O[C@H]1C(=O)[C@@]2(C)[C@H]([C@H](OC(=O)c3ccccc3)[C@]3(O)C[C@H](OC(=O)[C@H](O)[C@@H](NC(=O)c4ccccc4)c4ccccc4)C(C)=C1C3(C)C)[C@]1(OC(C)=O)CO[C@@H]1C[C@@H]2O [PACLITAXEL]
GI50 [9]: 0.137 mg/L (≈ 0.161 µM)
GI50 [10]: 0.026 mg/L (≈ 0.0304 µM)
GI50 [15]: 0.0048 mg/L (≈ 0.00562 µM)

CO[C@H]1/C=C/O[C@@]2(C)Oc3c(C)c(O)c4c(O)c(c(/C=N/N5CCN(C)CC5)c(O)c4c3C2=O)NC(=O)/C(C)=C\C=C\[C@H](C)[C@H](O)[C@@H](C)[C@@H](O)[C@@H](C)[C@H](OC(C)=O)[C@@H]1C [RIFAMPIN]
selectivity ratio [1]: 222
selectivity ratio [2]: 196
selectivity ratio [3]: 222
selectivity ratio [4]: 196
selectivity ratio [6]: 196
selectivity ratio [8]: 196
GI50 [9]: > 100 mg/L
GI50 [10]: > 100 mg/L
MIC90 [11]: 0.51 mg/L
MIC90 [12]: 0.75 mg/L (≈ 0.911 µM)
MIC90 [13]: 0.45 mg/L (≈ 0.547 µM)
MIC90 [14]: 0.81 mg/L (≈ 0.984 µM)
GI50 [15]: > 100 mg/L
GI50 [16]: > 100 mg/L
